Laboratory results taken from US20090131406A1 (BAYER CROPSCIENCE AG, priority 2005, published 2009).
Read-outs that look alike come from different tables or passages of the source.

How the values were obtained:
[1] = logP determination by HPLC on a reversed-phase column (C 18) at pH 2.7; type: physicochemical; settings: for chromatographic logP: reversed-phase C18 HPLC column
HeLa cells = experiment: LIVE/DEAD cytotoxicity assay, inhibition of cell proliferation; type: cell-based, human; parameters: log GI50 values (M), HeLa cells: unit not given here; settings: 48 hours of incubation, calcein-AM fluorescence, cell growth reduced by 50% compared to control
Method: (§1) The compounds of the general formula (I) according to the invention were tested for a possible cytotoxic or proliferation-inhibiting activity on the human tumour cell lines HeLa, SW620 and A375 (all from ATTC, American Type Culture Collection). To this end, the cells were plated in microtitre plates from Greiner (Manufacturer No. 781092) at a cell density of 1000 cells/microtitre plate well and cultivated in cell culture medium at 37° C. under a 5% carbon dioxide atmosphere. Cell culture media and additives were purchased from Invitrogen and the foetal calf serum from Biochrom. The cell culture media for Hela and A375 cells were used as stated by ATCC (HeLa: MEM, Order No. 10370-047, with 1% sodium bicarbonate, 1% non-essential amino acids, 1% sodium pyruvate, 10% foetal calf serum, 0.1% gentamycin; A375: DMEM, Order No. 41965-039, 2% sodium bicarbonate, 1% L-Glutamax, 10% foetal calf serum, 0.1% gentamycin). The culture medium for the SW620 cells consisted of DMEM, Order No. 41965-039, 1% non-essential amino acids, 10% foetal calf serum, 0.1% gentamycin.
24 hours after the cells had been plated in the microtitre plates, various concentrations of at most 100 μM down to a minimum concentration of 5 nM of the test compounds were added to the cells. […]
After a further 48 hours of incubation, the cells were washed with medium and analysed with the aid of a two-colour fluorescence cytotoxicity/viability test (LIVE/DEAD viability/cytotoxicity ASSAY kit from Molecular Probes, Order No. L-3224), according to the instructions of the manufacturer. […] The number of live cells was analysed by measuring the green fluorescence of the live dye calcein-AM as a component of the LIVE/DEAD reagent using a fluorescence plate reader (Flexstation, from Molecular Devices) at an excitation wavelength of 485 nm and an emission wavelength of 525 nm (cf. Oral, H. B. Endothelium 6, (1998), 143-151).
Cells only with cell culture medium, without added test compounds, were treated in parallel and analysed as growth controls. […]

SW620 cells = experiment: as above; type: cell-based, human; settings: 48 hours of incubation, calcein-AM fluorescence, cell growth reduced by 50% compared to control
Method: as §1
(§2) 24 hours after the cells had been plated in the microtitre plates, various concentrations of at most 100 μM down to a minimum concentration of 5 nM of the test compounds were added to the cells. Stock solutions of the test compounds (10 mM) were prepared in DMSO and stored at −20° C.; for the cytotoxicity tests, the test compounds were diluted in the appropriate cell culture medium.
(§3) After a further 48 hours of incubation, the cells were washed with medium and analysed with the aid of a two-colour fluorescence cytotoxicity/viability test (LIVE/DEAD viability/cytotoxicity ASSAY kit from Molecular Probes, Order No. L-3224), according to the instructions of the manufacturer. To this end, the medium was aspirated and in each case 30 μl of LIVE/DEAD reagent per microtitre plate well were added to the cells, which were then incubated for 30 minutes. The cells were then washed with PBS (phosphate-buffered saline). The number of live cells was analysed by measuring the green fluorescence of the live dye calcein-AM as a component of the LIVE/DEAD reagent using a fluorescence plate reader (Flexstation, from Molecular Devices) at an excitation wavelength of 485 nm and an emission wavelength of 525 nm (cf. Oral, H. B. Endothelium 6, (1998), 143-151).
(§4) Cells only with cell culture medium, without added test compounds, were treated in parallel and analysed as growth controls. The reference compounds used for anti-tumour agents having a cytotoxic or proliferation-inhibiting action were colchicine (from Merck/Calbiochem, Order No. 234115) and Taxol (baccatin III N-benzyl-b-phenylisoserine ester, from Merck/Calbiochem, Order No. 580555) (cf. Schiff, P. B. and Horwitz, S. B., Proceedings of the National Academy of Sciences of the U.S.A. 77, 1561-1565, 1980; Holmes, F. A. et al., Journal of the National Cancer Institute 83, 1797-1805, 1991).
(§5) The cytotoxic effects of the test compounds were expressed as logarithmic GI50 values (growth-inhibiting logarithmic concentration value at which a cell growth reduced by 50% compared to the control without test compounds was measured (cf. Xia et al., Journal of Medicinal Chemistry 44, 3932-3936, 2001; Smith, J. A. et al., Gynecologic Oncology 98, 141-145, 2005)).

A375 cells = experiment: as above; type: cell-based, human; settings: 48 hours of incubation, calcein-AM fluorescence, cell growth reduced by 50% compared to control
Method: as §1, §2, §3, §4, §5

[2] = reversed-phase C 18, pH 2.7, Table 2, starting materials of formula (VI), read-out: Physical data: logP values
[3] = reversed-phase C 18, pH 2.7, preparation examples, read-out: logP (pH 2.7)
[4] = reversed-phase C 18, pH 2.7, Table 3, starting materials of formula (VII), read-out: logP (pH 2.7)
[5] = reversed-phase C 18, pH 2.7, preparation examples

Question: Which chromatographic logP [1, 2] does the source give for `C=CCCN(Cc1cc(F)ccc1Br)C(=O)[C@H]1OC(C)(C)O[C@@H]1CC=C` [VI-2, (4S,5R)-5-allyl-N-(2-bromo-5-fluorobenzyl)-N-but-3-en-1-yl-2,2-dimethyl-1,3-dioxolane-4-carboxamide] here?
Answer: 4.83

Question: With `Cc1ccc2c(c1)C1CCN(C2)C(=O)[C@@H](O)[C@H](O)CC1=O` (stereo partly drawn) [Example I-9, (4S,5R)-4,5-Dihydroxy-10-methyl-5,6,8-trihydro-1H-2,8-ethano-2-benzazecine-3,7(4H)-dione] as the compound, how does the chromatographic logP [1, 3] read?
Answer: 1.33

Question: For `O=C1CCCC(=O)C2(O)CCN1Cc1cc3c(cc12)OCO3` (centres unmarked) [Example I-3, 12-Hydroxy-9,10,12-trihydro-5H-6,12-ethano[1,3]dioxolo[4,5-k][2]benzazecine-7,11(8H)-dione], which chromatographic logP [1, 3] is on record?
Answer: 0.99

Question: With `COc1cc2c(cc1OC)C1=CCCCC(=O)N(CC1)C2` [Example Ia-4, 10,11-Dimethoxy-1,4,5,6-tetrahydro-3H-2,8-ethano-2-benzazecin-3-one] as the compound, how does the chromatographic logP [1, 3] read?
Answer: 1.82

Question: For `O=C1CCCC=CCCN1Cc1cc2c(cc1Br)OCO2` [VII-5, 1-[(6-Bromo-1,3-Benzodioxol-5-yl)Methyl]-1,3,4,5,8,9-Hexahydro-2H-azonin-2-one], which chromatographic logP [1, 4] is on record?
Answer: 2.94

Question: For `Cc1ccc(CN2CCC=CC[C@H]3OC(C)(C)O[C@@H]3C2=O)c(Br)c1` [VII-1, (3aS,10aR)-5-(2-Bromo-4-methylbenzyl)-2,2-dimethyl-3a,5,6,7,10,10a-hexahydro-4H-[1,3]dioxolo[4,5-c]azonin-4-one], which chromatographic logP [1, 4] is on record?
Answer: 3.41

Question: For `CC1(C)O[C@@H]2C(=O)N(Cc3ccncc3Br)CCC=CC[C@H]2O1` [VII-3, (3aS,10aR)-5-[(3-bromopyridin-4-yl)methyl]-2,2-dimethyl-3a,5,6,7,10,10a-hexahydro-4H-[1,3]dioxolo[4,5-c]azonin-4-one], which chromatographic logP [1, 4] is on record?
Answer: 1.96

Question: Which GI50 (HeLa cells; Homo sapiens, read-out: log GI50 values (M), HeLa cells (converted)) does the source give for `CC(=O)O[C@H]1C(=O)[C@@]2(C)[C@H]([C@H](OC(=O)c3ccccc3)[C@]3(O)C[C@H](OC(=O)[C@H](O)[C@@H](NC(=O)c4ccccc4)c4ccccc4)C(C)=C1C3(C)C)[C@]1(OC(C)=O)CO[C@@H]1C[C@@H]2O` [Taxol] here?
Answer: 1e-07 M

Question: And the GI50 (SW620 cells; Homo sapiens, SW-620, read-out: log GI50 values (M), SW620 cells (converted))?
Answer: 1e-07 M

Question: What about the GI50 (A375 cells; Homo sapiens, A-375, read-out: log GI50 values (M), A375 cells (converted)) of the same compound?
Answer: 1.26e-07 M

Question: With `CC1(C)O[C@@H]2C(=O)N3CCC(=CC[C@H]2O1)c1cc2c(cc1C3)OCO2` [Example Ia-6, (3aS,14aR)-2,2-Dimethyl-3a,6,14,14a-tetrahydro-4H-5,12-ethanobis[1,3]dioxolo[4,5-d:4′,5′-k][2]benzazecin-4-one] as the compound, how does the chromatographic logP [1, 3] read?
Answer: 2.19

Question: With `CC1(C)O[C@@H]2C(=O)N3CCC(O)(C(=O)C[C@H]2O1)c1ccc(F)cc1C3` (stereo partly drawn) [Example I-2, (3aS,13aR)-8-Fluoro-11-hydroxy-2,2-dimethyl-6,11,13,13a-tetrahydro-4H-5,11-ethano[1,3]dioxolo[4,5-d][2]benzazecine-4,12(3aH)-dione] as the compound, how does the chromatographic logP [1, 3] read?
Answer: 1.49

Question: With `CC1(C)O[C@@H]2C(=O)N3CCC(O)(C(=O)C[C@H]2O1)c1cc2c(cc1C3)OCO2` (stereo partly drawn) [Example I-4, (3aS,14aR)-12-hydroxy-2,2-dimethyl-6,12,14,14a-tetrahydro-4H-5,12-ethanobis[1,3]dioxolo[4,5-d:4′,5′-k][2]benzazecine-4,13(3aH)-dione] as the compound, how does the chromatographic logP [1, 3] read?
Answer: 1.38

Question: With `CC1(C)O[C@@H]2C(=O)N3CCC(C(=O)C[C@H]2O1)c1cc2c(cc1C3)OCO2` (stereo partly drawn) [Example I-8, (3aS,14aR)-2,2-Dimethyl-6,12,14,14a-tetrahydro-4H-5,12-ethanobis[1,3]dioxolo[4,5-d:4′,5′-k][2]benzazecine-4,13(3aH)-dione] as the compound, how does the chromatographic logP [1, 3] read?
Answer: 1.6

Question: For `O=C1C[C@@H](O)[C@H](O)C(=O)N2CCC1c1cc3c(cc1C2)OCO3` (some centres unmarked) [Example I-10], which chromatographic logP [1, 3] is on record?
Answer: 0.89

Question: Which chromatographic logP [1, 3] does the source give for `O=C1CCCC=C2CCN1Cc1cc3c(cc12)OCO3` [Example Ia-5, 5,8,9,10-Tetrahydro-7H-6,12-ethano[1,3]dioxolo[4,5-k][2]benzazecin-7-one] here?
Answer: 2.01

Question: For `CO[C@@H]1[C@@H](OC)[C@H](O[C@@H]2CC(=O)[C@@H]3CCN(Cc4cc5c(cc43)OCO5)C(=O)[C@H]2O)O[C@H](CO)[C@H]1OC` [Cripowellin II, cripowellin II], which “log GI50 values (M), HeLa cells” value (HeLa cells) is on record?
Answer: 8.7

Question: And the “log GI50 values (M), SW620 cells” value (SW620 cells)?
Answer: 6.9 -log M

Question: And the “log GI50 values (M), A375 cells” value (A375 cells)?
Answer: 8.0 M

Question: Which chromatographic logP [1, 3] does the source give for `CC1(C)O[C@@H]2C(=O)N3CCC(C(=O)C[C@H]2O1)c1ccc(F)cc1C3` (stereo partly drawn) [Example I-6, (3aS,13aR)-8-Fluoro-2,2-dimethyl-6,11,13,13a-tetrahydro-4H-5,11-ethano[1,3]dioxolo[4,5-d][2]benzazecine-4,12(3aH)-dione] here?
Answer: 1.69

Question: For `Cc1ccc2c(c1)C1CCN(C2)C(=O)[C@H]2OC(C)(C)O[C@@H]2CC1=O` (stereo partly drawn) [Example I-5, (3aS,13aR)-2,2,9-Trimethyl-6,11,13,13a-tetrahydro-4H-5,11-ethanol[1,3]dioxolo[4,5-d][2]benzazecine-4,12(3aH)-dione], which “logP (pH 2.7)” value [1, 5] is on record?
Answer: 1.92

Question: For `Cc1ccc2c(c1)C1(O)CCN(C2)C(=O)[C@H]2OC(C)(C)O[C@@H]2CC1=O` (stereo partly drawn) [Example I-1, (3aS,13aR)-11-Hydroxy-2,2,9-trimethyl-6,11,13,13a-tetrahydro-4H-5,11-ethano[1,3]dioxolo[4,5-d][2]benzazecin-4,12(3aH)-one], which “logP (pH 2.7)” value [1, 5] is on record?
Answer: 1.61

Question: For `COc1cc(Br)c(CN2CCC=CCCCC2=O)cc1OC` [VII-4, 1-(2-bromo-4,5-dimethoxybenzyl)-1,3,4,5,8,9-hexahydro-2H-azonin-2-one], which chromatographic logP [1, 4] is on record?
Answer: 2.78

Question: With `CC1(C)O[C@@H]2C(=O)N3CCC(=CC[C@H]2O1)c1cnccc1C3` [Example Ia-3, (3aS,13aR)-2,2-Dimethyl-3a,6,13,13a-tetrahydro-4H-5,11-ethano[1,3]dioxolo[4,5-c]pyrido[3,4-h]azecin-4-one] as the compound, how does the chromatographic logP [1, 3] read?
Answer: 0.49

Question: With `CC1(C)O[C@@H]2C(=O)N3CCC(=CC[C@H]2O1)c1ccc(F)cc1C3` [Example Ia-2, (3aS,13aR)-8-Fluoro-2,2-dimethyl-3a,6,13,13a-tetrahydro-4H-5,11-ethano[1,3]dioxolo[4,5-d][2]benzazecin-4-one] as the compound, how does the chromatographic logP [1, 3] read?
Answer: 2.39

Question: Which chromatographic logP [1, 3] does the source give for `Cc1ccc2c(c1)C1=CC[C@H]3OC(C)(C)O[C@@H]3C(=O)N(CC1)C2` [Example Ia-1, (3aS,13aR)-2,2,9-Trimethyl-3a,6,13,13a-tetrahydro-4H-5,11-ethano[1,3]dioxolo[4,5-d][2]benzazecin-4-one] here?
Answer: 2.62

Question: Which chromatographic logP [1, 3] does the source give for `O=C1CCCC(=O)N2CCC1c1cc3c(cc1C2)OCO3` (centres unmarked) [Example I-7, 9,10,12-Trihydro-5H-6,12-ethano[1,3]dioxolo[4,5-k][2]benzazecine-7,11(8H)-dione] here?
Answer: 1.3

Question: Which chromatographic logP [1, 4] does the source give for `CC1(C)O[C@@H]2C(=O)N(Cc3cc(F)ccc3Br)CCC=CC[C@H]2O1` [VII-2, (3aS,10aR)-5-(2-bromo-5-fluorobenzyl)-2,2-dimethyl-3a,5,6,7,10,10a-hexahydro-4H-[1,3]dioxolo[4,5-c]azonin-4-one] here?
Answer: 3.09

Question: With `C=CCCN(Cc1ccc(C)cc1Br)C(=O)[C@H]1OC(C)(C)O[C@@H]1CC=C` [VI-1, (4S,5R)-5-Allyl-N-(2-bromo-4-methylbenzyl)-N-but-3-en-1-yl-2,2-dimethyl-1,3-dioxolane-4-carboxamide] as the compound, how does the chromatographic logP [1, 2] read?
Answer: 5.27
